Columns and labels:
Type in all cases: biochemical
Kdr = Kdr (Homo sapiens, UniProt P35968); test: Kinase activity assay, Kdr; conditions: Table 1i; read-out: activity toward kinase Kdr, IC50
Excerpt: (§1) Assays for the activity of kinases, including, but not limited to, Fms, Kit, B-Raf, B-Raf V600E, c-Raf-1, and TrkA are known in the art, for example as described in US Patent Publication Number US20070032519 and U.S. patent application Ser. No. 11/473,347 (see also, PCT publication WO2007002433), the disclosures of which are hereby incorporated by reference with respect to such assays.

Fms = Fms (Homo sapiens, UniProt P07333); test: Kinase activity assay, Fms; conditions: Table 1h; read-out: activity toward kinase Fms, IC50
Chain of Fms (P07333 20-972): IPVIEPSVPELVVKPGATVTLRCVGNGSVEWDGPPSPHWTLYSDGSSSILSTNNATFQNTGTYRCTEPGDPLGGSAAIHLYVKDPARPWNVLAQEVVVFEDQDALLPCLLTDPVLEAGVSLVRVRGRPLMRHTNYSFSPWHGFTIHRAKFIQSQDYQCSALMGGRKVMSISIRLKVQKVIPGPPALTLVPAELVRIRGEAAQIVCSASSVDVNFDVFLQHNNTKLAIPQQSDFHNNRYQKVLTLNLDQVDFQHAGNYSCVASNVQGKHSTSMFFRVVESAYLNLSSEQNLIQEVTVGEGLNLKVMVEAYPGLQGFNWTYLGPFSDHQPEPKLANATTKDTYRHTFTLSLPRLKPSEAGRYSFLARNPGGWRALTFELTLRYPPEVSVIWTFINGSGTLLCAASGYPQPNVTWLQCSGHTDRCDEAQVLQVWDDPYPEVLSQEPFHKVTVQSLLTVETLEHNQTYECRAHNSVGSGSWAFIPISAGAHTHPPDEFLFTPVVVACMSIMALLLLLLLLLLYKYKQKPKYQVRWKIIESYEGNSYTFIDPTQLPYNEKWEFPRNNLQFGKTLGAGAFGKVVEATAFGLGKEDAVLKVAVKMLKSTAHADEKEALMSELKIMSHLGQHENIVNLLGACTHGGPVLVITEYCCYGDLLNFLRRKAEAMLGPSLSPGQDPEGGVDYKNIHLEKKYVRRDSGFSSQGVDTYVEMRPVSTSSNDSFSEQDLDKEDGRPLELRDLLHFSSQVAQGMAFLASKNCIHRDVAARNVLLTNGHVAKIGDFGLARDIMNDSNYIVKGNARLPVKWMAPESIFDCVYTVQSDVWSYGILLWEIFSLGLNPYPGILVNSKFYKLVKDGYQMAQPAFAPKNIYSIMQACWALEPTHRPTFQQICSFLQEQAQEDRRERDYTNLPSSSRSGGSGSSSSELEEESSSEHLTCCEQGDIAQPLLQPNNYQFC
Excerpt: as §1

TrkA = TrkA (Homo sapiens, UniProt P04629); test: Kinase activity assay, TrkA; conditions: Table 1m; read-out: activity toward kinase TrkA, IC50
Chain of TrkA (P04629 33-796): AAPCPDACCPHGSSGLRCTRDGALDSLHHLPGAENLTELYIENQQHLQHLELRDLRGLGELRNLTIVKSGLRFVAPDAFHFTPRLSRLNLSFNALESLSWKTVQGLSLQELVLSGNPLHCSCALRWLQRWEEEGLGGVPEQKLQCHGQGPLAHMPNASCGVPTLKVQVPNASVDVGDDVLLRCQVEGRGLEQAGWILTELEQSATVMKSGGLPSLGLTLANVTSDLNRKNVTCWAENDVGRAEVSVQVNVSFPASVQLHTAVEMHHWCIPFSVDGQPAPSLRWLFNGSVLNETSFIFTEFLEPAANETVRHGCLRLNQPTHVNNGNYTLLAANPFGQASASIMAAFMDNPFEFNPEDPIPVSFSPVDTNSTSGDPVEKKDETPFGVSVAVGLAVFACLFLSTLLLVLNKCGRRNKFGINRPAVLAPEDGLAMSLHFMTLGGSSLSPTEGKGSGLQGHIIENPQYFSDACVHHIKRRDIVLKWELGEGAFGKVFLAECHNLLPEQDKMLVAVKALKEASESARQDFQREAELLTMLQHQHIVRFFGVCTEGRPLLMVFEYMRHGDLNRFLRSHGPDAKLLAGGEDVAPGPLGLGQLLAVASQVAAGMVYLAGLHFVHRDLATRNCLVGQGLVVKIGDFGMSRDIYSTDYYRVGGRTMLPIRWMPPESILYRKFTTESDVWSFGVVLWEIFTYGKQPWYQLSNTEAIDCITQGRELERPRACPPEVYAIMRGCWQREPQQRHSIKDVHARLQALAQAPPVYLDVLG
Excerpt: as §1

Kit = Kit (Homo sapiens, UniProt P10721); test: Kinase activity assay, Kit; conditions: Table 1j; read-out: activity toward kinase Kit, IC50
Chain of Kit (P10721 26-976): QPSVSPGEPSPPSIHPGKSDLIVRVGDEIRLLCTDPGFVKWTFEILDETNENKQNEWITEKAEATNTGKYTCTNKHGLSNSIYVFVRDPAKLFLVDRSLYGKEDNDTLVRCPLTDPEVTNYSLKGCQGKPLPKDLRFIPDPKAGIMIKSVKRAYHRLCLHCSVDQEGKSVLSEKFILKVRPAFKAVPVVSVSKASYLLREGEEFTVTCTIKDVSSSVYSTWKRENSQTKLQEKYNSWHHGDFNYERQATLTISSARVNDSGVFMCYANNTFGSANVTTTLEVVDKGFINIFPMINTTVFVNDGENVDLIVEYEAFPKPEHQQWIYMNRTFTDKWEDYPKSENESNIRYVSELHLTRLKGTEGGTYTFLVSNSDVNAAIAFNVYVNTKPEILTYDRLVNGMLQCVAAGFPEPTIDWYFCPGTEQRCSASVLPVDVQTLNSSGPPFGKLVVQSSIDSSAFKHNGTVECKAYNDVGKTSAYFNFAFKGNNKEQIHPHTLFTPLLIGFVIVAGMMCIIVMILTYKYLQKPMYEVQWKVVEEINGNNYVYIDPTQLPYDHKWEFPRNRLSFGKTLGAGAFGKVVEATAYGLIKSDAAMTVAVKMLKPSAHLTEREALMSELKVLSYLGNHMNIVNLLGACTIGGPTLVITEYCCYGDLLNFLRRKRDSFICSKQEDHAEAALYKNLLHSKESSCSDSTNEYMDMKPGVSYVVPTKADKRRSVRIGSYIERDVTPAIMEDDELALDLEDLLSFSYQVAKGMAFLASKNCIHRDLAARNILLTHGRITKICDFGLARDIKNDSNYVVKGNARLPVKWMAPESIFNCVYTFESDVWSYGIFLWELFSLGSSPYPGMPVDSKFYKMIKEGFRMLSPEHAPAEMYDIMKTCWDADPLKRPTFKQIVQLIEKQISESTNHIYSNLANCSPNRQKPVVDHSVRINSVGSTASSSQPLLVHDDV
Excerpt: as §1

B-Raf V600E = B-Raf V600E (Homo sapiens, UniProt P15056, V600E); test: Kinase activity assay, B-Raf V600E; conditions: Table 1c; read-out: activity toward kinase B-Raf V600E, IC50
Chain of B-Raf V600E (P15056 whole entry V600E): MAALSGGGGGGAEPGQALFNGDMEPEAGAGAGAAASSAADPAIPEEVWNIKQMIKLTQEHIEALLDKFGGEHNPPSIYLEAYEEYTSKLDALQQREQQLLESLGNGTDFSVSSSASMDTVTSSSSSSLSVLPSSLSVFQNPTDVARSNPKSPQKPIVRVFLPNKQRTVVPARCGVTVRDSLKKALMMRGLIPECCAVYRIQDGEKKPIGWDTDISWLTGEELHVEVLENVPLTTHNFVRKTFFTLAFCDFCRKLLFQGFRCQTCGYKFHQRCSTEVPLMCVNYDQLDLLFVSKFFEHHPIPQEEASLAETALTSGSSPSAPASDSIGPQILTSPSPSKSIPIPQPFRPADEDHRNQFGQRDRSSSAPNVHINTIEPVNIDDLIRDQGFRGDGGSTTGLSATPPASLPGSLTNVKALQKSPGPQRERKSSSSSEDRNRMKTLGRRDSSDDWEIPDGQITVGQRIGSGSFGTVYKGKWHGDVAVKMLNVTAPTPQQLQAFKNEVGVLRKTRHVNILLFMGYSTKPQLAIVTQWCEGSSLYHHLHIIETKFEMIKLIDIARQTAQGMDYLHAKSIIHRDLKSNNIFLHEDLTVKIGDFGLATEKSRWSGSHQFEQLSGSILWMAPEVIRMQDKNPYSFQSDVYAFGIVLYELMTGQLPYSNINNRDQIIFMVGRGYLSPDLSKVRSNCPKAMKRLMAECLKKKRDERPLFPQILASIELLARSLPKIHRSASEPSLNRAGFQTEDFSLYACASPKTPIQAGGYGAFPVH
Excerpt: as §1

Measured: IC50

Chain of Kdr (P35968 20-1356): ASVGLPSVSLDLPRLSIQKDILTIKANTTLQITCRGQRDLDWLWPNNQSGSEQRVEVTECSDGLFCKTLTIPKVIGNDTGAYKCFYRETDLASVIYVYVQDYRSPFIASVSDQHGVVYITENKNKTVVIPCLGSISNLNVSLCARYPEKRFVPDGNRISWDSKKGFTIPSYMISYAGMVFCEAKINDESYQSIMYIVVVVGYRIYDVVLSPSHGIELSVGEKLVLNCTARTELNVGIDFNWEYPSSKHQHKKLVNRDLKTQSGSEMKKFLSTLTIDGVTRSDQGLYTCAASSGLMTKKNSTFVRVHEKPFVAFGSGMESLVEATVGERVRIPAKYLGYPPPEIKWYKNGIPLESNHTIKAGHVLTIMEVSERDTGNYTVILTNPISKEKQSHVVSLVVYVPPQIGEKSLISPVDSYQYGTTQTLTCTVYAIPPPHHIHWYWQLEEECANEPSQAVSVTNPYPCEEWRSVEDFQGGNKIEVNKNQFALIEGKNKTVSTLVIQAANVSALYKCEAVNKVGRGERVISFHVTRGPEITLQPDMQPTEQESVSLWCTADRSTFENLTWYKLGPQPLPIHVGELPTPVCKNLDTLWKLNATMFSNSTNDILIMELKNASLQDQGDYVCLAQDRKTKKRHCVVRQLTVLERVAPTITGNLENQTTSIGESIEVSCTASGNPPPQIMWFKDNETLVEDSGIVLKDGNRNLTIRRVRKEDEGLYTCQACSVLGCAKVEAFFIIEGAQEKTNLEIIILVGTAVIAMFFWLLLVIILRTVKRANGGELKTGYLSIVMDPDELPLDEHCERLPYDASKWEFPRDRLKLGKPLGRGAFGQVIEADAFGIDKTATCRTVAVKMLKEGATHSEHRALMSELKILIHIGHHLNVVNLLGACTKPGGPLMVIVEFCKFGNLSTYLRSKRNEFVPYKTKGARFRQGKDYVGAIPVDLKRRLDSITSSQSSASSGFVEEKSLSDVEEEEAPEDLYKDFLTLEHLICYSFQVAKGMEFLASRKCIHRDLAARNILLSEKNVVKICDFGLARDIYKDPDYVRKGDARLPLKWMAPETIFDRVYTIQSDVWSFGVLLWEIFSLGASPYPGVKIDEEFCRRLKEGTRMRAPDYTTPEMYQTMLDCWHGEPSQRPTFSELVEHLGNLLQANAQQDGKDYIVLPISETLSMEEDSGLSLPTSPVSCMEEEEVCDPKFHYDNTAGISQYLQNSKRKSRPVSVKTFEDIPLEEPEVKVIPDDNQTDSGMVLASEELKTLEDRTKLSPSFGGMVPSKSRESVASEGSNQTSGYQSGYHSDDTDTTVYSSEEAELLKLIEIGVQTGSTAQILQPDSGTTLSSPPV

COc1cc(CNc2ccc(Cc3c[nH]c4ncncc34)c(F)n2)cc(C(F)(F)F)c1 [P-0082, [6-Fluoro-5-(7H-pyrrolo[2,3-d]pyrimidin-5-ylmethyl)-pyridin-2-yl]-(3-methoxy-5-trifluoromethyl-benzyl)-amine]
not listed: B-Raf V600E
≤ 10 µM: all other assays above

COc1ncc(F)cc1CNc1ncc(Cc2c[nH]c3ncncc23)cn1 [P-0022, (5-Fluoro-2-methoxy-pyridin-3-ylmethyl)-[5-(7H-pyrrolo[2,3-d]pyrimidin-5-ylmethyl)-pyrimidin-2-yl]-amine]
not listed: TrkA
≤ 10 µM: all other assays above

COc1ncc(F)cc1CNc1ccc(Cc2c[nH]c3ncnc(O)c23)cn1 [P-0099, 5-{6-[(5-Fluoro-2-methoxy-pyridin-3-ylmethyl)-amino]-pyridin-3-ylmethyl}-7H-pyrrolo[2,3-d]pyrimidin-4-ol]
≤ 10 µM: Fms | TrkA | Kit

CCOc1ncccc1CNc1ccc(Cc2c[nH]c3ncncc23)c(F)n1 [P-0069, (2-Ethoxy-pyridin-3-ylmethyl)-[6-fluoro-5-(7H-pyrrolo[2,3-d]pyrimidin-5-ylmethyl)-pyridin-2-yl]-amine]
not listed: B-Raf V600E
≤ 10 µM: all other assays above

Fc1nc(NCc2cccnc2C(F)(F)F)ccc1Cc1c[nH]c2ncncc12 [P-0071, [6-Fluoro-5-(7H-pyrrolo[2,3-d]pyrimidin-5-ylmethyl)-pyridin-2-yl]-(2-trifluoromethyl-pyridin-3-ylmethyl)-amine]
≤ 10 µM: Kdr | Fms | TrkA

Cc1ccc(CNc2ccc(Cc3c[nH]c4ncncc34)c(F)n2)nc1 [P-0062, [6-Fluoro-5-(7H-pyrrolo[2,3-d]pyrimidin-5-ylmethyl)-pyridin-2-yl]-(5-methyl-pyridin-2-ylmethyl)-amine]
not listed: TrkA
≤ 10 µM: all other assays above

Fc1nc(NCc2ccnc(C(F)(F)F)c2)ccc1Cc1c[nH]c2ncncc12 [P-0075, [6-Fluoro-5-(7H-pyrrolo[2,3-d]pyrimidin-5-ylmethyl)-pyridin-2-yl]-(2-trifluoromethyl-pyridin-4-ylmethyl)-amine]
≤ 10 µM: Kdr | Fms | TrkA

COc1ccc(OC)c(CNc2ccc(Cc3c[nH]c4ncncc34)c(F)n2)c1 [P-0038, (2,5-Dimethoxy-benzyl)-[6-fluoro-5-(7H-pyrrolo[2,3-d]pyrimidin-5-ylmethyl)-pyridin-2-yl]-amine]
≤ 10 µM: Fms | B-Raf V600E | Kit

CN(C)c1ccccc1CNc1ccc(Cc2c[nH]c3ncncc23)c(F)n1 [P-0061, (2-Dimethylamino-benzyl)-[6-fluoro-5-(7H-pyrrolo[2,3-d]pyrimidin-5-ylmethyl)-pyridin-2-yl]-amine]
not listed: B-Raf V600E
≤ 10 µM: all other assays above

C[C@H](Nc1ccc(Cc2c[nH]c3ncncc23)c(F)n1)c1ccc(F)cc1 [P-0016, [(S)-1-(4-Fluoro-phenyl)-ethyl]-[6-fluoro-5-(7H-pyrrolo[2,3-d]pyrimidin-5-ylmethyl)-pyridin-2-yl]-amine]
not listed: TrkA
≤ 10 µM: all other assays above

COc1ncc(F)cc1CNc1ccc(Cc2c[nH]c3ncnc(OC)c23)c(F)n1 [P-0094, (5-Fluoro-2-methoxy-pyridin-3-ylmethyl)-[6-fluoro-5-(4-methoxy-7H-pyrrolo[2,3-d]pyrimidin-5-ylmethyl)-pyridin-2-yl]-amine]
not listed: B-Raf V600E
≤ 10 µM: all other assays above

Fc1nc(NCc2ccc(Br)cn2)ccc1Cc1c[nH]c2ncncc12 [P-0053, (5-Bromo-pyridin-2-ylmethyl)-[6-fluoro-5-(7H-pyrrolo[2,3-d]pyrimidin-5-ylmethyl)-pyridin-2-yl]-amine]
not listed: TrkA
≤ 10 µM: all other assays above

COc1ncc(CNc2ncc(Cc3c[nH]c4ncncc34)cn2)cc1F [P-0024, (5-Fluoro-6-methoxy-pyridin-3-ylmethyl)-[5-(7H-pyrrolo[2,3-d]pyrimidin-5-ylmethyl)-pyrimidin-2-yl]-amine]
not listed: B-Raf V600E
≤ 10 µM: all other assays above

Fc1nc(NCc2cc(C(F)(F)F)cc(C(F)(F)F)c2)ccc1Cc1c[nH]c2ncncc12 [P-0054, (3,5-Bis-trifluoromethyl-benzyl)-[6-fluoro-5-(7H-pyrrolo[2,3-d]pyrimidin-5-ylmethyl)-pyridin-2-yl]-amine]
not listed: B-Raf V600E
≤ 10 µM: all other assays above

COc1cc(CNc2ccc(Cc3c[nH]c4ncncc34)c(F)n2)cc(OC)c1 [P-0065, (3,5-Dimethoxy-benzyl)-[6-fluoro-5-(7H-pyrrolo[2,3-d]pyrimidin-5-ylmethyl)-pyridin-2-yl]-amine]
≤ 10 µM: Kdr | Fms | TrkA

CCc1ncc(CNc2ccc(Cc3c[nH]c4ncncc34)c(F)n2)cn1 [P-0078, (2-Ethyl-pyrimidin-5-ylmethyl)-[6-fluoro-5-(7H-pyrrolo[2,3-d]pyrimidin-5-ylmethyl)-pyridin-2-yl]-amine]
≤ 10 µM: Kdr | Fms | B-Raf V600E

Cc1cc(F)cc(CNc2ccc(Cc3c[nH]c4ncncc34)c(F)n2)c1 [P-0064, (3-Fluoro-5-methyl-benzyl)-[6-fluoro-5-(7H-pyrrolo[2,3-d]pyrimidin-5-ylmethyl)-pyridin-2-yl]-amine]
not listed: B-Raf V600E
≤ 10 µM: all other assays above

CCCCc1ncc(CNc2ccc(Cc3c[nH]c4ncncc34)c(F)n2)cn1 [P-0081, (2-Butyl-pyrimidin-5-ylmethyl)-[6-fluoro-5-(7H-pyrrolo[2,3-d]pyrimidin-5-ylmethyl)-pyridin-2-yl]-amine]
≤ 10 µM: Kdr | Fms | B-Raf V600E

Fc1nc(NCc2ccc(Cl)nc2)ccc1Cc1c[nH]c2ncncc12 [P-0045, (6-Chloro-pyridin-3-ylmethyl)-[6-fluoro-5-(7H-pyrrolo[2,3-d]pyrimidin-5-ylmethyl)-pyridin-2-yl]-amine]
not listed: TrkA
≤ 10 µM: all other assays above
